Assays:
[1] = target: T1, Histone-lysine N-methyltransferase EHMT2 (Homo sapiens, UniProt Q96KQ7); test: Inhibition of methyl transferase activity of G9a assessed as inhibition of H3K9 methylation by chemiluminescence based oxygen tunneling assay
T1 sequence (Q96KQ7 whole entry): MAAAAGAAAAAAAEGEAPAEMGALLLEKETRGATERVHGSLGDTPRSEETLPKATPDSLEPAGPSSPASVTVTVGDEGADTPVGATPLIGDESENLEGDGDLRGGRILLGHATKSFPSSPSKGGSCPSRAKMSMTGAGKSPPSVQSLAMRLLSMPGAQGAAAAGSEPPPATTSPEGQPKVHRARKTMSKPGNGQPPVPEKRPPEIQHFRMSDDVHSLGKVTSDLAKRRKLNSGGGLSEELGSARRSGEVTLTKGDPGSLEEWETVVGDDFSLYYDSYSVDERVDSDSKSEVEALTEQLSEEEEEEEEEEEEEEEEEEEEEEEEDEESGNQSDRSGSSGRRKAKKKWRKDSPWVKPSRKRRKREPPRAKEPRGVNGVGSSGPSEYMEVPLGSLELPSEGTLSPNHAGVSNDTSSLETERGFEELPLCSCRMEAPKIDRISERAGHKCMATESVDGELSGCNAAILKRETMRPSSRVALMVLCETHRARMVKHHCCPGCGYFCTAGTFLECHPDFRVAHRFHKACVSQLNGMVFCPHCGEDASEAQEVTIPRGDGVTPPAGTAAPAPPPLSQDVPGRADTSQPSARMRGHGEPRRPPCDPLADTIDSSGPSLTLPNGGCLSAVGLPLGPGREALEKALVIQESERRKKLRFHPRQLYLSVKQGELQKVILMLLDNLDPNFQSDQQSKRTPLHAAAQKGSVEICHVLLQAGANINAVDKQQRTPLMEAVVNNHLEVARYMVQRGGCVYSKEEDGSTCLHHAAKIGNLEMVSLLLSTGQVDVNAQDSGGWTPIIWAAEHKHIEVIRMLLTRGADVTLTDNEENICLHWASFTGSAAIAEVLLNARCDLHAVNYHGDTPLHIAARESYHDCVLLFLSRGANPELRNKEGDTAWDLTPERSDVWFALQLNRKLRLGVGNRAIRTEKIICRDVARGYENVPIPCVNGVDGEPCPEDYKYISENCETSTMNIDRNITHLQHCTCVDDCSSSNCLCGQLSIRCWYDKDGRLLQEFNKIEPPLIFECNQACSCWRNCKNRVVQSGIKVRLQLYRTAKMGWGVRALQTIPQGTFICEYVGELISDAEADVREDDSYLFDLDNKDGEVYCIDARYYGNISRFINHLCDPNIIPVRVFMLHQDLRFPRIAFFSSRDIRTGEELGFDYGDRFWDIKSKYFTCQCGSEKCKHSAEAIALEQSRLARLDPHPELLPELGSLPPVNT

[2] = target: T1, Histone-lysine N-methyltransferase EHMT2; test: Activity at methyl transferase activity G9a by enzyme coupled S-adenocylehomocystein detection assay
[3] = Activity at methyl transferase activity JMJD2E by formaldehyde dehydrogenase-coupled assay
[4] = target: T2, Histone-lysine N-methyltransferase EHMT1 (Homo sapiens, UniProt Q9H9B1); test: Activity at methyl transferase activity GLP by chemiluminescence based oxygen tunneling assay
T2 sequence (Q9H9B1 whole entry): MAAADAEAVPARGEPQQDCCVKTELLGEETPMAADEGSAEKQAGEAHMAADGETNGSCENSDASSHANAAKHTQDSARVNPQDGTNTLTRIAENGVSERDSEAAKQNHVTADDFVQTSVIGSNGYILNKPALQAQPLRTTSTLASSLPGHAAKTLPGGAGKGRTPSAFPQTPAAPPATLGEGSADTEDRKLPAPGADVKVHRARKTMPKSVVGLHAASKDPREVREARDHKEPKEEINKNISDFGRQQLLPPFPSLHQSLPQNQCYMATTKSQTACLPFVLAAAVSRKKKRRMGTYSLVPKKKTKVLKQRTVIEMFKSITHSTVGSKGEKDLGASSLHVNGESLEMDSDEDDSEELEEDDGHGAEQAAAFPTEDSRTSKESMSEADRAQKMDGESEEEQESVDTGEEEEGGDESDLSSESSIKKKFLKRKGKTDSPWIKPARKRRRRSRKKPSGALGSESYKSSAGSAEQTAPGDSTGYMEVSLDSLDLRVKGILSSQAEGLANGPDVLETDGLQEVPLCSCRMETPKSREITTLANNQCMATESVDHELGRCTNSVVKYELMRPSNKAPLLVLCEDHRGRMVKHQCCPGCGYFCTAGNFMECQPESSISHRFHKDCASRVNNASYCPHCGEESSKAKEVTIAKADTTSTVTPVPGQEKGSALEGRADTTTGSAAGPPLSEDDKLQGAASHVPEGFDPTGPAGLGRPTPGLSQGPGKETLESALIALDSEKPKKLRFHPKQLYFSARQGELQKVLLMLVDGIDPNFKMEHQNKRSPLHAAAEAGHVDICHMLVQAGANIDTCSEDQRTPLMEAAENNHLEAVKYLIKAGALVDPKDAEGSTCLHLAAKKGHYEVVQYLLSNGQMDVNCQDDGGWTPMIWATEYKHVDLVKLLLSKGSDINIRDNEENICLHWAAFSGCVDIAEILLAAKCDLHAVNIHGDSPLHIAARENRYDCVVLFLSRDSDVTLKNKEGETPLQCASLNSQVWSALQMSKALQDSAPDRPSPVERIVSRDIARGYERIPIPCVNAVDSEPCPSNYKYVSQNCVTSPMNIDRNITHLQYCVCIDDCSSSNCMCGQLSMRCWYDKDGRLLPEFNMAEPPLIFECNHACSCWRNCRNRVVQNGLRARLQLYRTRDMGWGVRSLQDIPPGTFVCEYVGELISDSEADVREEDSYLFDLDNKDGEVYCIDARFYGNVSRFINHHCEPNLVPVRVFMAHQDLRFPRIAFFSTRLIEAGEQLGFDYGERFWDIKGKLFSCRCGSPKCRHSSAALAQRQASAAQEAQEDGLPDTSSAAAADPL

[5] = target: T2, Histone-lysine N-methyltransferase EHMT1; test: Activity at methyl transferase activity GLP by enzyme coupled S-adenocylehomocystein detection assay
[6] = target: T3, Histone-lysine N-methyltransferase SETD7 (Homo sapiens, UniProt Q8WTS6); test: Activity at methyl transferase activity SET7/9 by enzyme coupled S-adenocylehomocystein detection assay
T3 sequence (Q8WTS6 whole entry): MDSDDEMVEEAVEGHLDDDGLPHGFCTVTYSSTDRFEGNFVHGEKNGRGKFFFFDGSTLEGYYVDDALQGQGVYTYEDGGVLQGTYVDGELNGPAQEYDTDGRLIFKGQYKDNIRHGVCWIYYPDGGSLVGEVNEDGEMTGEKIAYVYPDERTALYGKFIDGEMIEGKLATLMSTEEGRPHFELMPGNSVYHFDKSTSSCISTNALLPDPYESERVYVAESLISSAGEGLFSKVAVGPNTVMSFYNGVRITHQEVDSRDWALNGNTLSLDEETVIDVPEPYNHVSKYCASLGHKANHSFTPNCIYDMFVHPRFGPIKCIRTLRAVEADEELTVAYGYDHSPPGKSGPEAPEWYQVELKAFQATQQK

[7] = target: T4, N-lysine methyltransferase KMT5A (Homo sapiens, UniProt Q9NQR1); test: Activity at methyl transferase activity SET8/preSet7 by enzyme coupled S-adenocylehomocystein detection assay
T4 sequence (Q9NQR1 whole entry): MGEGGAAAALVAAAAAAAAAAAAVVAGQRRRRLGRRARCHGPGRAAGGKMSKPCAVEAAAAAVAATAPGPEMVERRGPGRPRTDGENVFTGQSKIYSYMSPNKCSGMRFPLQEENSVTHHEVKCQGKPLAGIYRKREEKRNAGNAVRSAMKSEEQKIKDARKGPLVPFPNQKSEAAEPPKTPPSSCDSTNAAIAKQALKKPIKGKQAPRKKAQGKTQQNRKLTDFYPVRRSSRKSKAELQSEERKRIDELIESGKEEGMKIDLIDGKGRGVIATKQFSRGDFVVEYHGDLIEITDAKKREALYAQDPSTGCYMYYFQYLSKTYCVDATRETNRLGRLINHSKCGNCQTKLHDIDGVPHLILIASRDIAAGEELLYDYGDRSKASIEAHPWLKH

[8] = target: Protein arginine N-methyltransferase 3 (Homo sapiens, UniProt O60678); test: Activity at methyl transferase activity PRMT3 by enzyme coupled S-adenocylehomocystein detection assay
Protein arginine N-methyltransferase 3, sequence (O60678 whole entry): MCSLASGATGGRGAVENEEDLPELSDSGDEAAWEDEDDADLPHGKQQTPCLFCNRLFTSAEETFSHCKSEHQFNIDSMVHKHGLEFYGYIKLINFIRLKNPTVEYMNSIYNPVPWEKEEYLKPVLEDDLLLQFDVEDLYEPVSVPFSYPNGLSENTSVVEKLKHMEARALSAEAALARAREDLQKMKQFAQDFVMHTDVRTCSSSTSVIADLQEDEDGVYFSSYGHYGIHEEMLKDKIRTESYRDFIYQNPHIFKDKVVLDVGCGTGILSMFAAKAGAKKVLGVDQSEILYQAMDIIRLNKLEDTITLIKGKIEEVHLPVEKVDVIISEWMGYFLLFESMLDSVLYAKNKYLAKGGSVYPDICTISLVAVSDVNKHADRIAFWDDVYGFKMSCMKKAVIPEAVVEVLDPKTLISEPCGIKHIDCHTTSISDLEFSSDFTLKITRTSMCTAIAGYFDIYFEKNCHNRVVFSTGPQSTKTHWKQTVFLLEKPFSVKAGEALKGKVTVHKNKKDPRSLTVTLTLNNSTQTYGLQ

## CNc1nc(N2CCCN(C)CC2)nc2cc(OC)c(OC)cc12
[1]
  IC50: > 10000 nM

## COc1cc2c(NC3CCN(C)CC3)nc(N3CCCN(C)CC3)nc2cc1OCCCCN(C)C
[1]
  IC50: 110 nM
[2]
  IC50: 140 nM

## COc1cc2c(NC3CCN(C)CC3)nc(N3CCCN(C)CC3)nc2cc1OCCCCCN(C)C
[2]
  IC50: 95 nM

## CNCCCOc1cc2nc(N3CCCN(C)CC3)nc(NC3CCN(C)CC3)c2cc1OC
[2]
  IC50: 120 nM

## CCN(CC)CCCOc1cc2nc(N3CCCN(C)CC3)nc(NC3CCN(C)CC3)c2cc1OC
[2]
  IC50: 52 nM

## CCCN(C)CCCOc1cc2nc(N3CCCN(C)CC3)nc(NC3CCN(C)CC3)c2cc1OC
[2]
  IC50: 51 nM

## COc1cc2c(NC3CCN(C)CC3)nc(N3CCCN(C)CC3)nc2cc1OCCCN1CCOCC1
[1]
  IC50: 780 nM
[2]
  IC50: 880 nM

## COCCCCOc1cc2nc(N3CCCN(C)CC3)nc(NC3CCN(C)CC3)c2cc1OC
[1]
  IC50: > 10000 nM

## COc1cc2c(NC3CCN(C)CC3)nc(N3CCCN(C)CC3)nc2cc1OCCCCNC(=O)OC(C)(C)C
[1]
  IC50: > 10000 nM

## COc1cc2c(NC3CCN(C)CC3)nc(N3CCCN(C)CC3)nc2cc1OCCCCCN
[1]
  IC50: 110 nM
[2]
  IC50: 235 nM

## COc1cc2c(NC3CCN(C)CC3)nc(N3CCCN(C)CC3)nc2cc1OCCCCC(N)=O
[1]
  IC50: > 10000 nM

## COc1cc2c(NC3CCN(C)CC3)nc(N3CCCN(C)CC3)nc2cc1OCCOCCN(C)C
[3]
  IC50: > 57 µM
[1]
  IC50: 6 nM
[4]
  IC50: 23 nM
[5]
  IC50: 15 nM
[6]
  IC50: > 40 µM
[7]
  IC50: > 40 µM
[8]
  IC50: > 40 µM

## COc1cc2c(NC3CCN(C)CC3)nc(N3CCCN(C)CC3)nc2cc1OCCOCCN1CCCC1
[1]
  IC50: 110 nM
[2]
  IC50: 57 nM

## COc1cc2c(NC3CCN(C)CC3)nc(N3CCCN(C)CC3)nc2cc1OCCN(C)CCN(C)C
[1]
  IC50: 173 nM
[2]
  IC50: 345 nM

## COc1cc2c(NC3CCN(C)CC3)nc(N3CCCN(C)CC3)nc2cc1OCC1CCCNC1 (centres undefined)
[1]
  IC50: 5100 nM
[2]
  IC50: 1500 nM

## COc1cc2nc(N3CCCN(C)CC3)nc(N(C)C3CCN(C)CC3)c2cc1OC
[1]
  IC50: > 10000 nM

## COc1cc2nc(N3CCCN(C)CC3)nc(OC3CCN(C)CC3)c2cc1OC
[1]
  IC50: > 10000 nM

## COc1cc2nc(N3CCCN(C)CC3)nc(NC3CCN(C)C3)c2cc1OC (centres undefined)
[2]
  IC50: 910 nM

## COc1cc2c(NC3CCN(C)CC3)nc(N3CCCN(C)CC3)nc2cc1OCCCN(C)C
[3]
  IC50: > 57 µM
[6]
  IC50: > 40 µM
[7]
  IC50: > 40 µM
[8]
  IC50: > 40 µM
